Reference: the supplement of paper PMC10307832

Experiments:
Experiment in all cases: relative viability (nuclei count vs DMSO), 5 days (fraction); higher = more cells survive
Quizartinib + OSI-027 = compound: CC(C)(C)c1cc(NC(=O)Nc2ccc(-c3cn4c(n3)sc3cc(OCCN5CCOCC5)ccc34)cc2)no1 [Quizartinib] + COc1cccc2cc(-c3nc([C@H]4CC[C@H](C(=O)O)CC4)n4ncnc(N)c34)[nH]c12 [OSI-027] (partner 0.5 µM)
How it was run: (§1)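 Values are medians from duplicate plates. Each reflects relative viability, defined as the nuclei count of treated wells over that of vehicle wells. Lung cancer cell lines in 1536-well plates were pin-tool dosed one day after seeding with one drug alone or with a fixed anchor-drug dose plus five library-drug doses (not always all listed) in √10 steps, then fixed, stained and imaged at 4× after 5 days.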

Quizartinib + Pictilisib = compound: CC(C)(C)c1cc(NC(=O)Nc2ccc(-c3cn4c(n3)sc3cc(OCCN5CCOCC5)ccc34)cc2)no1 [Quizartinib] + CS(=O)(=O)N1CCN(Cc2cc3nc(-c4cccc5[nH]ncc45)nc(N4CCOCC4)c3s2)CC1 [Pictilisib] (partner 1 µM)
How it was run: as §1

YM155 + Lapatinib = compound: COCC[n+]1c2c(n(Cc3cnccn3)c1C)C(=O)c1ccccc1C2=O [YM155] + CS(=O)(=O)CCNCc1ccc(-c2ccc3ncnc(Nc4ccc(OCc5cccc(F)c5)c(Cl)c4)c3c2)o1 [Lapatinib] (partner 2 µM)
How it was run: as §1

YM155 + Dasatinib = compound: COCC[n+]1c2c(n(Cc3cnccn3)c1C)C(=O)c1ccccc1C2=O [YM155] + Cc1nc(Nc2ncc(C(=O)Nc3c(C)cccc3Cl)s2)cc(N2CCN(CCO)CC2)n1 [Dasatinib] (partner 0.075 µM)
How it was run: as §1

Cell Line	relative viability (Quizartinib + OSI-027; first compound 0.001 µM)	relative viability (Quizartinib + OSI-027; first compound 0.003162 µM)	relative viability (Quizartinib + OSI-027; first compound 0.01 µM)	relative viability (Quizartinib + OSI-027; first compound 0.03162 µM)	relative viability (Quizartinib + OSI-027; first compound 0.1 µM)	relative viability (Quizartinib + Pictilisib; first compound 0.001 µM)	relative viability (Quizartinib + Pictilisib; first compound 0.003162 µM)	relative viability (Quizartinib + Pictilisib; first compound 0.01 µM)	relative viability (Quizartinib + Pictilisib; first compound 0.03162 µM)	relative viability (Quizartinib + Pictilisib; first compound 0.1 µM)	relative viability (YM155 + Lapatinib; first compound 0.002 µM)	relative viability (YM155 + Lapatinib; first compound 0.006325 µM)	relative viability (YM155 + Lapatinib; first compound 0.02 µM)	relative viability (YM155 + Lapatinib; first compound 0.06325 µM)	relative viability (YM155 + Dasatinib; first compound 0.006325 µM)	relative viability (YM155 + Dasatinib; first compound 0.02 µM)	relative viability (YM155 + Dasatinib; first compound 0.06325 µM)	relative viability (YM155 + Dasatinib; first compound 0.002 µM)
NCI-H838	0.346	0.4	0.299	0.38	0.375	0.389	0.479	0.356	0.39	0.377	0.92	1.01	1.03	0.353	0.291	0.299	0.281	
NCI-H1437	0.789	0.868	0.853	0.956	0.747	0.475	0.37	0.425	0.327	0.314	0.72	0.784	0.767	0.708	0.324	0.348	0.253	0.351
LXF-289	0.743	0.791	0.797	0.89	0.877	0.71	0.748	0.801	0.763	0.777	0.891	0.892	0.905	0.713	0.231	0.194	0.224	0.233
LU99A	0.282	0.3	0.282	0.319	0.327	0.312	0.317	0.327	0.309	0.291	0.965	0.884	0.809	0.589	0.442	0.697	0.518	0.562
HOP-62	0.75	0.769	1.03	0.87	0.847	0.377	0.7	0.692	0.831	0.835	0.831	1.02	0.973	0.961	0.64	0.706	0.646	0.673
NCI-H1915	0.602	0.642	0.562	0.683	0.606	0.838	0.875	0.698	1	1.05	0.968	0.946	0.918	0.784	0.284	0.309	0.301	0.311
SW 1573	0.423	0.59	0.573		0.666	0.474	0.432	0.516	0.325	0.475	1.1	1.01	1.21	0.858	0.474	0.133	0.0759	0.446
HARA		0.523	0.368	0.423	0.325	0.345	0.372	0.305	0.3	0.477	0.623	0.862	0.701	0.959	0.278	0.298	0.292	0.161
HCC-366	0.705	0.866	0.796	0.831	0.747		0.138	0.103	0.137	0.138	1.07	0.986	1.01	0.625	0.653	0.685	0.581	0.578
SK-MES-1	0.538	0.582	0.658		0.622	0.244	0.329	0.391	0.363	0.365	0.468	0.476	0.442	0.473	0.34	0.332	0.154	0.447
ABC-1	0.428	0.472	0.495	0.383	0.415	0.502	0.683	0.648	0.626	0.769	1.13		1.18	0.518	0.374	0.197	0.26	0.48
NCI-H358	0.706	0.676	0.768	0.287	0.72	0.297	0.332	0.305		0.315	0.326	0.447	0.344	0.199	0.145	0.161	0.156	0.139
HCC-15		0.71	0.583		0.644	0.433	0.788	0.755	0.607	0.707	0.802	0.911	0.868	0.69	0.56	0.593	0.507	0.663
NCI-H1650	0.414	0.738	0.598		0.494	0.268	0.584	0.566		0.547	0.674	0.787	0.988	0.488	0.338	0.368	0.353	0.283
NCI-H1666	0.755	0.883	0.856	0.764	0.857	0.458	0.325	0.415	0.399	0.264	0.629		0.77	0.562	0.791	0.799	0.826	0.812
EMC-BAC-2	0.348	0.397	0.364		0.413	0.561	0.562	0.54	0.511	0.592	0.795	0.899	0.874	0.817	0.355	0.325	0.338	0.327
NCI-H460	0.585	0.593	0.692	0.341	0.533	0.439	0.436	0.382	0.352	0.384	0.906	1.1	1.05	0.452	0.499	0.582	0.547	0.487
NCI-H2405	0.653	0.702	0.736	0.644	0.626	0.614	0.442	0.327	0.44	0.503	1.03	0.816	0.786	0.34	0.22	0.206	0.21	0.191
